Measured values taken from US12195456B1, “Single molecules having mixed CDK4, CDK6, PLK1 targeting properties” (priority 2019, dated 2025).
“Also recorded” adds a separate entry of the source.

Legend:
[1] = tested on: MDA-MB-468 Rb-deficient TNBC cells; test: Cell cycle progression, Rb-deficient TNBC cells; assay type: cell-based
[2] = tested on: Rb-deficient MDA-MB-468 TNBC cells; test: Apoptosis assay (AnnexinV/PI), MDA-MB-468; assay type: cell-based
Experimental: (§1) Apoptosis assay: Apoptotic rates were analyzed and quantified by flow cytometry following AnnexinV/PI staining on SUM159 and MDA-MB-468 breast cancer cells.

[3] = biological target: CDK4/cyclin D3 (Homo sapiens, UniProt P11802); test: In vitro kinase assay, CDK4/cyclin D3; assay type: biochemical
Sequence of CDK4/cyclin D3 (P11802 whole entry): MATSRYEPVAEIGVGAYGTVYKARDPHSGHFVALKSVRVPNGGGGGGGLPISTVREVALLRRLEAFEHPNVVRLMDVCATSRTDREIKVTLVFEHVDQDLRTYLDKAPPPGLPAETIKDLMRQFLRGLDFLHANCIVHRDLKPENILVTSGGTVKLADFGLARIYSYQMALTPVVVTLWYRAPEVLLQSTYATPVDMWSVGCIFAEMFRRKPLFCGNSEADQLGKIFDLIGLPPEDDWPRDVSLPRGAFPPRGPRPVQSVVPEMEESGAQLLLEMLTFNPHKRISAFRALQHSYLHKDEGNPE
Sequence of CDK4/cyclin D3 (P30281 whole entry partner): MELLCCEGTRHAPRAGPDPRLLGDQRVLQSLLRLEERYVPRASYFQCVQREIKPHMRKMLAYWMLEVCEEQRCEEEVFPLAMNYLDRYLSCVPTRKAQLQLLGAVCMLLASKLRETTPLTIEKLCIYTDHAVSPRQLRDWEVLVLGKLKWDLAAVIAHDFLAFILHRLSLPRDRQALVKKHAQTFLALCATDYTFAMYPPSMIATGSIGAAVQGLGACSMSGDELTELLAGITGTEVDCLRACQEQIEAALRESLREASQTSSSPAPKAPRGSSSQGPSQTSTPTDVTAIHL
Source text: (§2) In vitro kinase profiling: To assess on-target and off-target kinase affinity and specificity of our lead inhibitor KP108 in a full kinome profiling, we will test the lead compound against Reaction Biology Corporation four panels (Wild Type. Panel (374 kinases), Mutant Panel (232 kinases), Atypical Panel (20 kinases), Lipid Panel (17 lipid kinases). This was outsourced to Reaction Biology Corporation, a biopharmaceutical company focused on the development of kinase inhibitors (http://www.reactionbiology.com/webapps/site/).

[4] = tested on: SKBR3 HER2+ breast cancer cells; test: ALDH+ cancer stem cell numbers (ALDEFLUOR, flow cytometry), SKBR3; assay type: cell-based; settings: equimolar concentrations vs existing CDK4/6 inhibitors
[5] = tested on: SUM159 Rb-positive TNBC cells; test: Cell cycle progression, Rb-positive TNBC cells; assay type: cell-based, human
[6] = biological target: CDK6/cyclin D3 (Homo sapiens, UniProt Q00534); test: In vitro kinase assay, CDK6/cyclin D3; assay type: biochemical
Sequence of CDK6/cyclin D3 (Q00534 whole entry): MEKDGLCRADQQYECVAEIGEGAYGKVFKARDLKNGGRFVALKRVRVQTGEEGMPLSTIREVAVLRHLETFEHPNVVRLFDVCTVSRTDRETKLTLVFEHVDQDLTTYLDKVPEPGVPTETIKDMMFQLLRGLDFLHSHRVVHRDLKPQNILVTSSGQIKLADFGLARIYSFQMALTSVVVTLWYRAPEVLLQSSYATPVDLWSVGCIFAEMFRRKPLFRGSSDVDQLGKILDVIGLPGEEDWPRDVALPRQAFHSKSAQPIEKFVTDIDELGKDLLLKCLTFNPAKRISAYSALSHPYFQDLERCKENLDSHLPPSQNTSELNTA
Sequence of CDK6/cyclin D3 (P30281 whole entry partner): as the sequence (P30281 whole entry partner) above
Source text: as §2

[7] = tested on: CSCs (tumorsphere formation); test: Tumorsphere assay; assay type: cell-based; settings: in vitro
Experimental: Tumorsphere assays: Monolayer cells were enzymatically dissociated into single cells with trypsin-EDTA. Cells were plated at 10,000 cells per well in a 24-well low-attachment plate (Coming). Cells were grown for 7 days in DMEM/F12 supplemented with B27 (Invitrogen) in the presence of 10 ng/ml EGF and 10 ng/ml bFGF. Tumorsphere-forming efficiency was calculated as the number of spheres divided by the number of singles cells seeded, expressed as a percentage.

[8] = tested on: SUM159 lung metastasis; test: Preclinical lung metastasis model (tail vein injection of TNBC cells); assay type: in vivo; settings: NSG mice, daily I.P. 50 mg/kg for 2 weeks
Experimental: To then functionally assess our lead in a preclinical model of tumor metastasis, immune-deficient non-obese diabetic scid gamma (NSG) mice were injected intravenously with 10^6 TNBC cells. […] Lungs were collected and stained with Bouin's solution and, the numbers of lung metastatic nodules were quantified. In vivo studies: All mice were housed and handled in accordance to the approved guidelines of the Canadian Council on Animal Care (CCAC) “Guide to the Care and Use of Experimental Animals” and under the conditions and procedures approved by the Animal Care Committee of McGill University (AUP #7497). The NSG mouse breeders were purchased from Jackson Laboratory (California, US). Female and male NSG mice between 7 and 9 weeks of age were bred and maintained in the animal facility of the Research Institute of the McGill University Health Center, as per the guidelines of the McGill University Animal Care Committee. Intravenous injection model: cells (1×106/each) were injected by tail vein route to develop lung metastases. The mice were euthanized with a maximum of 42-day (SUM159) post cancer cells injection. The lung tissues were counted for metastases nodules post Bouin's solution fixation.

[9] = tested on: SUM159 triple negative breast cancer cells; test: ALDH+ cancer stem cell numbers (ALDEFLUOR, flow cytometry), SUM159; assay type: cell-based, human; settings: TNBC (SUM159); equimolar concentrations vs existing CDK4/6 inhibitors
Experimental: Flow cytometry was used to measure the ALDH+ CSC numbers, as previously described^6,11-13. […] As a result, KP108 was further selected as the first lead compound.
ALDEFLUOR assay was performed as described in the manufacturer's protocol, 1×10^6 SUM159 cells were centrifuged and resuspended in 1 ml ALDH assay buffer. 5 μl substrate was added into the cell suspension. For negative control, 500 μl cell suspension were then transferred into a new tube containing 5 μl DEAB. Cells were then incubated for 40 min at 37° C. Percentage of ALDH+ cells were analyzed with Accuri C6 flow cytometer and Flowjo software.

[10] = tested on: Rb-deficient MDA-MB-438 cell line; test: In vitro growth inhibition (SRB), Rb-deficient MDA-MB-438; assay type: cell-based
Experimental: (§3) In vitro growth inhibition assay: Growth inhibitory potency was evaluated using the SRB assay. Briefly, cells were plated in 96-well in triplicate and treated with drugs (0.0065 μM to 100 μM) 24 h after seeding. Following drug treatment, the cells were fixed using 50 μl of cold TCA (50%) for 1 h at 4° C., washed five times with tap water, and stained for 30 min at room temperature with SRB (0.4%) in acetic acid (0.5%). The plates were subsequently rinsed five times with acetic acid (1%) and allowed to air dry. The resulting purple residue was dissolved in Tris base (200 μl, 10 mM), and optical densities read on a ELx808 BioTek microplate reader. […] values were determined using the GraphPad Prism software.

[11] = tested on: pancreatic cancer cells; test: In cellulo testing, pancreatic cancer; assay type: cell-based
Experimental: (§4) Cell Culture: All the cell lines used were cultured at 37° C. in 5% CO2. HEK293T and MDA were maintained in Dulbecco's Modified Eagle Medium (DMEM) (Wisent Bio) with 10% fetal bovine serum (FBS) (Gibco). SUM159 was maintained in Ham's F-12 media with 5% FBS, 5 μg/mL insulin and 1 μg/mL hydrocortisone (Wisent Bio). HPAF-II was maintained in Eagle's Minimum Essential Medium (EMEM) (Wisent Bio) with 10% FBS. PC-3 was maintained in F-12K medium with 10% FBS.
as §3

[12] = biological target: Polo-like Kinase-1 (PLK1) (Homo sapiens, UniProt P53350); test: Kinase profiling / inhibition of PLK1; assay type: biochemical; settings: panel of 50 kinases
Sequence of Polo-like Kinase-1 (PLK1) (P53350 whole entry): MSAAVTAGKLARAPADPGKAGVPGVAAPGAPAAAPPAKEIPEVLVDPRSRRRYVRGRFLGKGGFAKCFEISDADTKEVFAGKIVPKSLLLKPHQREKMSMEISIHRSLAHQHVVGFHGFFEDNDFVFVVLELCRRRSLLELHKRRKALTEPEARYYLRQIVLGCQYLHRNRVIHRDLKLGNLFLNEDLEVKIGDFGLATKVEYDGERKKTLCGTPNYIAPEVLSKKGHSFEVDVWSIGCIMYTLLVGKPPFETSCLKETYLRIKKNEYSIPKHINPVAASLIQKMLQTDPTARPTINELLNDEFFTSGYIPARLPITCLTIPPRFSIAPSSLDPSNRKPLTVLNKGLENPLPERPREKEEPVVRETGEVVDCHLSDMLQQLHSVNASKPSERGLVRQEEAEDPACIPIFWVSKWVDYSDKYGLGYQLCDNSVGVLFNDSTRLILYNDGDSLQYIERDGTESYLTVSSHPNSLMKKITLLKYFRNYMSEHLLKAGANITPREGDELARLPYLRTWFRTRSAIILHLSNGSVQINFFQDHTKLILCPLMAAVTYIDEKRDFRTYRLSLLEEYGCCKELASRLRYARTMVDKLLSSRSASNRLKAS
Source text: (§5) As expected, at these high concentrations, the relative % of inhibition is saturated at nearly 100% for both CDK4 and CDK6. To validate CDK4/6 and PLK1 as functional KP108 targets, we then assessed CDK4-mediated Rb phosphorylation (Ser780) and PLK1-mediated autophosphorylation (Thr210) in vitro.
(§6) […] This was outsourced to Reaction Biology Corporation, a biopharmaceutical company focused on the development of kinase inhibitors (http://www.reactionbiology.com/webapps/site/).

[13] = tested on: prostate cancer cells; test: In cellulo testing, prostate cancer; assay type: cell-based
Experimental: as §4, §3

[14] = tested on: MDA-MB-231 TNBC cells; test: In vitro growth inhibition (SRB), MDA-MB-231; assay type: cell-based
Experimental: as §3

[15] = tested on: panel of 50 different kinases; test: Kinase profiling against a panel of 50 kinases at 100 nM; assay type: biochemical; settings: 100 nM range, except PLK1
Source text: as §5, §6

[16] = tested on: SUM149 TNBC cells; test: In vitro growth inhibition (SRB), SUM149; assay type: cell-based
Experimental: as §3

[17] = tested on: CDK4-mediated Rb phosphorylation (Ser780); test: Immunoblotting of Rb phosphorylation in TNBC cells; assay type: cell-based
Source text: as §5
(§7) As PLK1 is overexpressed in 80% of metastatic breast cancers and the fact that it acts by blocking the G2-M phase of the cell cycle, this provides an attractive added value for KP108, further expanding its potential tumor growth inhibitory capacity.
(§8) Western Blot After washing the infected cells with ice-cold PBS twice, 300 μL of ice-cold cell lysis buffer (1M Tris-HCl, 5M NaCl, 10% Triton, 100 mM EDTA, 100 mM Na3VO4, ×100 Protease Inhibitor, 10× Phosphatase Inhibitor) was added to the dish. All the adherent cells were scraped off the dish and the cell suspension were transferred to a microcentrifuge tube. The cell suspension was left to incubated on ice for 10 min and the cell lysate mixture was centrifuge at 12,000 RPM for 20 mins at 4° C. The supernatant was transferred to a new microcentrifuge tube on ice. The protein concentration was determined using the BCA Kit (ThermoFisher). The lysate samples were diluted in 5×SDS Buffer and were heated at 95° C. for 5 min. The ladder and the samples were loaded into the wells of a SDS PAGE gel and the gel was then run at 100V. […]

[18] = tested on: Rb-positive SUM159 TNBC cells; test: Apoptosis assay (AnnexinV/PI), SUM159; assay type: cell-based, human
Experimental: as §1

[19] = tested on: PLK1-mediated autophosphorylation (Thr210); test: Immunoblotting of PLK1 autophosphorylation in TNBC cells; assay type: cell-based
Source text: as §5, §7, §8

[20] = tested on: PLK family members; test: Effects on PLK family members; assay type: biochemical
[21] = tested on: cell lines representing different models of solid tumors (breast, prostate and pancreatic cancers); test: Growth inhibition in cell lines representing different solid tumors; assay type: cell-based; settings: all tumor types tested: breast
Experimental: as §3

[22] = tested on: SUM159 TNBC xenografts; test: Orthotopic SUM159 TNBC xenograft (mammary fat pad); assay type: in vivo, NSG mice
Experimental: We further assessed our compound on breast cancer tumorigenesis in vivo, through orthotopic transplantation of SUM159 TNBC cells into the mammary fat pad of NSG mice. […] Drugs were administered through i.p. daily injections for two weeks (50 mg/kg) and tumor volumes were measured, as per our team optimized protocol^10,19.
In vivo studies: All mice were housed and handled in accordance to the approved guidelines of the Canadian Council on Animal Care (CCAC) “Guide to the Care and Use of Experimental Animals” and under the conditions and procedures approved by the Animal Care Committee of McGill University (AUP #7497). The NSG mouse breeders were purchased from Jackson Laboratory (California, US). Female and male NSG mice between 7 and 9 weeks of age were bred and maintained in the animal facility of the Research Institute of the McGill University Health Center, as per the guidelines of the McGill University Animal Care Committee.
Xenograft model: Human breast cancer cells, SUM159 (1×10^6/mouse) were diluted in 1:1 with Matrigel and then inoculated in 8-week old, female NSG mice by mammary fat pad route to generate breast cancer tumor. Tumor sizes were measured with a digital electronic caliper three times per week to reach maximum volume of 1000 mm3 prior to euthanasia. Tumor volumes were calculated according to the following formula: [4/3×π×(Length/2)×(Width/2)2] to generate a growth curve.

C=CC(=O)Nc1ccc(C(=O)N2CCN(c3ccc(Nc4ncc5c(C)c(C(C)=O)c(=O)n(C6CCCC6)c5n4)nc3)CC2)cc1 [KP108, N-(4-(4-(6-((6-acetyl-8-cyclopentyl-5-methyl-7-oxo-7,8-dihydropyrido[2,3-d]pyrimidin-2-yl)amino}pyridin-3-yl)piperazine-1-carbonyl)phenyl)acrylamide]
effect on cell cycle progression [1]: efficiently induce G2 arrest; also recorded: dose-dependent increase in the G2 phase | pro-apoptotic effect [2]: significant pro-apoptotic effect; also recorded: almost complete cell death | selectivity to CDK4 than CDK6 ([3]; CDK4 vs CDK6): 26 times | IC50 ([3]; in vitro kinase assay): 0.77 nM | relative % of inhibition, CDK4 ([3]; kinase panel, 100 nM range): ~100% | elimination of ALDH+ CSCs [4]: significant superior efficacy; also recorded: nearly maximal efficacy | effect on cell cycle progression [5]: induce G1 arrest | IC50 ([6]; in vitro kinase assay): 20.4 nM | relative % of inhibition, CDK6 ([6]; kinase panel, 100 nM range): ~100% | reduction of tumorsphere formation [7]: superior efficacy in reducing tumorsphere formation | lung colonization / lung metastatic nodules [8]: great efficacy and sustained activity; also recorded: significantly prevented, to almost completely block lung colonization | elimination of ALDH+ CSCs [9]: significant superior efficacy; also recorded: nearly maximal efficacy | activity in cellulo [10]: great activity in cellulo | activity in cellulo [11]: very active | inhibition of PLK1 [12]: efficiently inhibit; also recorded: highlighting PLK1 as a potential KP108 target | activity in cellulo [13]: very active | activity in cellulo [14]: great activity in cellulo | off-target cross-reactivity in kinase panel [15]: no or little cross-reactivity | activity in cellulo [16]: great activity in cellulo | block of Rb phosphorylation (Ser780) [17]: efficiently block phosphorylation | pro-apoptotic effect [18]: significant pro-apoptotic effect | block of PLK1 autophosphorylation (Thr210) [19]: efficiently block phosphorylation | effects on other PLK family members [20]: only targets PLK1 | IC50 compared with palbociclib [21]: lower IC50in all tumor types tested | primary tumor development (tumor volume) ([22]; NSG mice, i.p. daily for two weeks, 50 mg/kg): great efficacy and sustained activity; also recorded: great efficacy in preventing primary tumor development | tumor growth once injections were stopped ([22]; after end of the two-week 50 mg/kg i.p. treatment): growth inhibitory effects sustained over time, even once injections were stopped | animal health / weight ([22]; treated mice, 50 mg/kg i.p. daily): did not affected animal health
